According to a melting point compilation (Tetko et al.; mined from patent text by program, amines drawn as free bases though some values may be those of a salt):

First: COC(=O)Cc1ccc(OCCNC(=O)C2Cc3ccccc3N2S(=O)(=O)c2ccc(-c3cc(F)ccc3Cl)cc2)cc1 (configuration not stated)
Second: O=C1NC(=O)C(Nc2ccc(CCNCC(O)COc3ccc(OCc4ccccc4)cc3)cc2)S1 (configuration not stated)
The melting point of the first is lower: 52 to 56 °C for the first, 152 °C for the second.

First: CC(C)c1cccc(C(C)C)c1NC(=O)Nc1nnn(CCCCCCCCCCCCO)n1
Second: O=C(OCCCCCCCCCCCCBr)C1CC1
The melting point of the first is higher: 80 to 90 °C for the first, 29 to 31 °C for the second.

First: Cc1cn(NCCCc2ccncc2F)c2ccc(O)cc12
Second: Cc1cnn(CC(=O)O)c1OCCCc1cn(-c2ccc(C(F)(F)F)cn2)nc1C(C)C
The melting point of the first is higher: 157 to 160 °C for the first, 123 to 124 °C for the second.

Compared with `O=C1CCCc2ccc([N+](=O)[O-])cc2N1`, `O=[N+]([O-])c1ccc2c(ccn2Cc2cccnc2)c1` is lower in melting point: 224 to 226 °C for the first, 131 to 134 °C for the second.

Compared with `COC(=O)c1cccc2c1CC(C)(C)CC2N(C)S(C)(=O)=O` (configuration not stated), `COc1cccc(C(=O)C=CC2=CCC(OC)(N(C)C)C=C2)c1OC` (configuration not stated) is higher in melting point: 98 to 99 °C for the first, 168 to 169 °C for the second.

First: O=C(Nc1ccc(F)cc1F)Nc1c(-c2ccccc2)c2cc(Cl)ccc2[nH]c1=O
Second: O=c1c2cc(F)ccc2nc(CNCc2ccccc2F)n1-c1ccccc1Cl
The melting point of the first is higher: 222 to 224 °C for the first, 140 °C for the second.

First: CC(=O)Oc1c(C)cc(C=CC(=O)Nc2cnc3c(C)cc(C)cc3c2-c2ccccc2Cl)c(C)c1C
Second: CCC(=O)c1ccc(-c2cc(NC(=O)OC(C)(C)C)ccc2C)c(C)c1
The melting point of the first is higher: 233 to 234 °C for the first, 119 °C for the second.

Compared with `Cc1c(CN(C)C)cc(C(C)(C)CC(C)(C)C)c(O)c1C`, `CC(C)(C)OC(=O)NCc1cc(C(C)(C)C)cc(Cl)c1O` is higher in melting point: 130 to 132 °C for the first, 161 to 163 °C for the second.

First: CCOC(=O)c1[nH]c2ccc(C)cc2c1C
Second: CCOC(=O)C1=C(C)NC(CSC(=N)N)=C(C(=O)OCC)C1c1cccc([N+](=O)[O-])c1 (single isomer, unassigned; (+))
The melting point of the first is lower: 118 °C for the first, 124 to 126 °C for the second.

First: N#Cc1nn(-c2c(Cl)cc(C(F)(F)F)cc2Cl)cc1-c1ccoc1
Second: COc1cc(-c2ccc(C(F)(F)F)cc2)c(C(C)=NOCc2ccc([N+](=O)[O-])cc2)cc1O
The melting point of the first is higher: 139 °C for the first, 112 to 114 °C for the second.

Compared with `NC(=O)c1cnc2c(F)c(F)ccc2c1`, `CC1(C)CN(Cc2cc(F)ccc2F)c2cc(I)cnc2N1` is lower in melting point: 250 °C for the first, 168 to 169 °C for the second.

First: O=Cc1ccc(C=Cc2ccc3ccccc3n2)cc1
Second: O=c1[nH]c(-c2ccc(O)cc2)cc2ccccc12
The melting point of the first is lower: 112 to 113 °C for the first, 239 to 241 °C for the second.

Compared with `CC12C=CCC1C1CCC3CC(=O)CCC3(C)C1CC2` (configuration not stated), `CCCC12C3=CCC4CC(OC(C)=O)CCC4(C)C3CCC1(C)C(C(C)CCCC(C)C)CC2O` (configuration not stated) is lower in melting point: 140 to 141 °C for the first, 104 °C for the second.

First: O=C(c1ccccc1)N1CCc2[nH]c3ccc(-c4ccccc4)cc3c2CC1
Second: O=C(Nc1ccccc1)N1CCC(c2nn(-c3ccccc3)c3cc(F)ccc23)CC1
The melting point of the first is lower: 140 to 145 °C for the first, 163 to 165 °C for the second.

Compared with `CCCCc1ccc(CCCCC(N)(CO)CO)cc1`, `CCCCS(=O)Cc1ccc(CS(=O)CCCC)cc1` (configuration not stated) is higher in melting point: 92 to 94 °C for the first, 187 to 188 °C for the second.

First: CC(=C1SC(=S)NC1=O)c1ccccc1C(=O)O
Second: CSc1cc(C(=O)O)cc([N+](=O)[O-])c1C(=O)c1ccccc1
The melting point of the first is lower: 193 to 195 °C for the first, 210 to 213 °C for the second.

First: Cc1cccc(N2C(=S)SCC2O)n1 (configuration not stated)
Second: CNC(=O)c1ccc(N2CCNCC2)c(F)c1
The melting point of the first is lower: 128 °C for the first, 174 to 193 °C for the second.

First: O=c1ccn(CCO)c(C(O)c2ccc3ccccc3c2)c1OCc1ccccc1 (configuration not stated)
Second: S=C(Nc1ccccc1)Nc1ncccc1OCc1ccccc1
The melting point of the first is higher: 110 to 112 °C for the first, 107 to 109 °C for the second.

First: COC(=O)c1cn2ccsc2n1
Second: COC(=N[N+](=O)[O-])NCc1cnc(Cl)s1
The melting point of the first is higher: 153 to 156 °C for the first, 133 to 135 °C for the second.

Compared with `CC1(C)CCC(C)(C)c2cc(CCCO)c(/C=C/c3ccc(C(=O)O)cc3)cc21`, `CC1=C(CNC(=O)NCCCN(C)C)c2cc(F)ccc2/C1=C\c1ccc(S(C)(=O)=O)cc1` is lower in melting point: 213 °C for the first, 147 °C for the second.

First: COC(=O)C(O)C(O)C1CC1 (configuration not stated)
Second: CCOC(=O)CCNC(=O)NC1CCN(c2ccc(C=NNOC(=O)OCC)cc2)C1=O (configuration not stated)
The melting point of the first is lower: 54 to 57 °C for the first, 198 to 201 °C for the second.

`O=C(O)CCCCCCCCCCn1c(-c2ccccc2)c(-c2ccccc2)n(-c2ccccc2)c1=O` and `CC(C)C[C@H](NC(=O)OCc1ccccc1)C(=O)N[C@@H](Cc1ccccc1)C(=O)CSCc1ccccn1` cannot be ordered by melting point: 83 to 84 °C for the first, 82 to 87 °C for the second.

First: CC1CCCN(S(=O)(=O)c2cc(Cl)cc(C(=O)O)c2)C1 (configuration not stated)
Second: Cc1c(C(=O)O)ccc2c1CCCO2
The melting point of the first is lower: 177 to 179 °C for the first, 207 to 208 °C for the second.

Compared with `CS(=O)(=O)c1ccc(-c2cnn(-c3ccc(F)c(F)c3)c(=O)c2-c2cccs2)cc1`, `Cc1cc(-c2ccc(C(F)(F)F)cc2)nc(-c2cccc(-c3cccc(S(=O)(=O)NC(C)(C)C)c3)n2)n1` is higher in melting point: 189 to 191 °C for the first, greater than 250 °C for the second.

First: O=c1c2cc(I)ccc2nc(Cl)n1-c1ccc(Cl)cc1
Second: CC1CC(=Cc2ccccc2)c2nc3cc(N)ccc3c(=O)n21 (configuration not stated)
The melting point of the first is lower: 178 to 180 °C for the first, 239 to 241 °C for the second.

First: CCC(c1ccc2[nH]c(C(F)(F)F)nc2c1)n1ccnc1 (configuration not stated)
Second: CCc1nc2c(-c3ccc(OC(F)(F)F)cc3Cl)ncnc2n1C(C1CC1)C1CC1
The melting point of the first is higher: 173 °C for the first, 119 to 120 °C for the second.

First: Cc1noc(NC(=O)N2CCN(c3nccc(-c4cc(F)cc(F)c4)n3)CC2)c1C
Second: CCc1ccc2c(c1)C=Cc1cc(C)ccc1C2c1cn(-c2ccnc(N3CCCC3C(=O)O)n2)c(=O)[nH]c1=S (configuration not stated)
The melting point of the first is higher: 241 to 242 °C for the first, 175 °C for the second.

Compared with `CC(O)=C(C#N)C(=O)Nc1ccc(Br)cc1Br`, `N#CCCCc1ncccc1NS(=O)(=O)c1ccccc1` is lower in melting point: 181 °C for the first, 80 to 81 °C for the second.

First: Cc1c(F)cc(C(C)(C)C)c(O)c1-c1nc2ccc(S(=O)(=O)C(F)(F)F)cc2c(=O)[nH]1
Second: O=S(=O)(Nc1ccc2c(OCc3ccc(I)cc3)cccc2c1)C(F)(F)F
The melting point of the first is higher: 257 to 258 °C for the first, 120 to 122 °C for the second.

Compared with `CCONC(CC)=C1C(=O)OC(CC)=C(Br)C1=O`, `CC(C)(C)OC(=O)NCCC(=O)NCc1cccc2c1C(=O)N(C1CCC(=O)NC1=O)C2=O` (configuration not stated) is higher in melting point: 76.5 to 77.5 °C for the first, 96 to 98 °C for the second.

Compared with `CCc1nc(-c2ccc(OCCC3CCN(c4ccc(C)nn4)CC3)cc2)co1`, `c1ccc(Oc2ccc(N3CCNCC3)nn2)cc1` is lower in melting point: 124 °C for the first, 96 to 97 °C for the second.

First: COc1cc(OC)cc(-c2ncn(CCO)c2-c2ccc(OC)c(F)c2)c1
Second: COc1ccc(CC(=O)c2c(O)c3cccnc3n(-c3ccccc3)c2=O)c(OC)c1
The melting point of the first is higher: 202 to 204 °C for the first, 200 to 202 °C for the second.

First: C=CC1(C=C)OC(C(=O)O)Oc2ccc(Cl)cc21 (configuration not stated)
Second: COC(=O)/C=C/c1cccc(OCCCCCOC(C)=O)c1
The melting point of the first is higher: 144 °C for the first, 65 to 67 °C for the second.

Compared with `O=C(Nc1cccc2c1C(=O)c1c-2n[nH]c1-c1ccc(N2CCNCC2)cc1)NN1CCC[C@@H]1COCc1ccccc1`, `N#Cc1c(N2CCNCC2)c2cc(F)ccc2n(Cc2ccc(F)cc2)c1=O` is higher in melting point: 207 °C for the first, 240 °C for the second.

First: CC(C)Cn1c(CC(C)O)nc2c(N)nc3ccccc3c21 (configuration not stated)
Second: Cc1ccc(CCc2ccccc2Br)c(N)c1
The melting point of the first is higher: 196 to 198 °C for the first, 67 to 69 °C for the second.

First: CCOC(=O)Cc1nc(Cl)c(Cl)s1
Second: CCN(CC)c1nc(C)nc(N)n1
The melting point of the first is lower: 63 °C for the first, 125 to 127 °C for the second.

First: CCCc1ccc([C@H]2CC[C@H](O)CC2)cc1
Second: O=c1c2cc(Cl)ccc2ncn1CCCN1CCC(c2c[nH]c3ccccc23)CC1
The melting point of the first is lower: 78.2 to 80 °C for the first, 138 °C for the second.

First: COCCNS(=O)(=O)c1ccc(Nc2nccc(-c3sc(-c4cccnc4)nc3C)n2)cc1
Second: O=S(=O)(NCCCCn1ccnc1)c1ccc(Br)cc1
The melting point of the first is higher: 252 to 254 °C for the first, 158 to 159 °C for the second.

`CCCNC(=O)C1Cc2c([nH]c3ccccc23)C(c2ccc3c(c2)OCO3)N1C(C)=O` (configuration not stated) and `O=C1N(CC2CCCO2)c2ccccc2C12COc1cc3c(cc12)OCC3` (configuration not stated) cannot be ordered by melting point: 163 to 165 °C for the first, 162 to 164 °C for the second.

Going from `Cc1ccccc1-n1c(C=Cc2ccccc2F)nc2nccnc2c1=O` to `CN1C(=O)C(c2c[nH]c3ncccc23)=C(c2cn(S(=O)(=O)c3ccccc3)c3ncccc23)C1=O`, the melting point falls from greater than 250 °C to 198 °C.

First: CCOc1ccc(C(=O)Nc2c(Cl)cncc2Cl)c2c3cc(Cl)ccc3n(Cc3ccccc3)c12
Second: CN1CCN(S(=O)(=O)c2ccccc2NC(=O)N[C@@H](Cc2ccc(NC(=O)c3c(Cl)cncc3Cl)cc2)C(=O)O)CC1
The melting point of the first is higher: 221 to 223 °C for the first, 189 °C for the second.

First: NC(=O)NCCS(=O)Cc1ccccc1 (configuration not stated)
Second: NC(=O)N(O)Cc1ccc(OCc2csc(-c3ccccc3)n2)cc1
The melting point of the first is lower: 110 °C for the first, 161 to 164 °C for the second.

First: CC(=O)OC(CN(Cc1ccccc1)Cc1ccccc1)c1ccc2c(c1)CCN2C(C)=O (configuration not stated)
Second: O=C(c1cc(C2=CC3CCC(C2)N3)ccn1)N(O)Cc1ccccc1 (configuration not stated)
The melting point of the first is lower: 91 to 92 °C for the first, 95 to 100 °C for the second.

First: CC(=O)NC1Cc2cn(S(=O)(=O)c3c(C(C)C)cc(C(C)C)cc3C(C)C)c3cccc(c23)C1=O (configuration not stated)
Second: COc1cccc(NC(=O)CN2C(=O)c3ccccc3C2=O)c1
The melting point of the first is lower: 159 to 162 °C for the first, 171 °C for the second.

First: C1=CC(n2nc(-c3ccc4ccccc4c3)cc2-c2ccccc2)(n2nc(-c3ccc4ccccc4c3)cc2-c2ccccc2)CC=C1c1ccccc1
Second: COCCNC1CCc2cc(Nc3ncc(Cl)c(Nc4c(OC)ccc5c4CN(S(C)(=O)=O)CC(=O)N5)n3)c(OC)cc2CC1 (configuration not stated)
The melting point of the first is higher: 287 °C for the first, 110 to 114 °C for the second.

First: CCn1ncc(C(=O)c2ccc(S(C)(=O)=O)c(N3CCOC(O)C3)c2Cl)c1O (configuration not stated)
Second: CC(=O)Nc1c([N+](=O)[O-])cc(Br)c2c1CN(C(C)=O)CC2
The melting point of the first is higher: 209 to 210 °C for the first, 173 to 175 °C for the second.

Compared with `CCCCCCCCCCCCS(=O)(=O)c1cc2c(cc1S(=O)(=O)CCCCCCCCCCCC)C(=O)c1c(c(O)c3ccccc3c1O)C2=O`, `CCc1c(Sc2cc(C)cc(C)c2)n(CC2=CCC(CO)C2)c(=O)[nH]c1=O` (configuration not stated) is lower in melting point: 173 to 175 °C for the first, 57 to 60 °C for the second.

First: CC1CCCN1CCCN1CCN(C2CCN(Cc3ccccc3)CC2)C1=C(C#N)C#N (configuration not stated)
Second: O=C1COC2(CCN(CCC3COc4ccccc4O3)CC2)CN1 (configuration not stated)
The melting point of the first is lower: 130 to 131 °C for the first, 139 to 140 °C for the second.

`Cc1ccc(-n2cnc(OC(C)C(=O)O)n2)cc1` (configuration not stated) showed a melting point of 163 to 165 °C.
